Assay results from patent publication US20200399238A1, “THERAPEUTIC AURONES” (MIDDLE TENNESSEE STATE UNIVERSITY, priority 2016, published 2020).
Read-outs that look alike come from different tables or passages of the source.

Legend:
TNFα = assay: Cytokine response by ELISA, TNFα; type: cell-based, human
Description: (§1) Dexamethasone is a synthetic glucocorticoid that suppresses LPS-induced pro-inflammatory cytokine expression and was used as a control (Abraham, Lawrence et al. 2006). Supernatants were collected for human cytokine ELISAs and the manufacturer's protocol was followed to assess the cytokine response. Cells remaining after the supernatant collection were tested for relative viability by Alamar Blue cytotoxicity assay as previously described.

[1] = system: PMA-differentiated THP-1 cells; assay: Alamar Blue cell viability assay, THP-1; type: cell-based, human; settings: THP-1 cells, 4 h with LPS, mean ± SD
Description: THP-1 cells were maintained in RPMI 1640 medium supplemented with 10% heat-inactivated FBS and 1% penicillin/streptomycin (complete culture medium) at 37° C. with 5% CO2 supplemented. Cell concentrations were adjusted to desired concentrations for each experiment by centrifugation at 500×g for 5 min and resuspended in complete culture medium with 100 nM of PMA. Cell concentration was adjusted to 5×10^5 cells/ml for all assays with the exception of 2.5×10^5 cells/ml were used for NF-κB nuclear translocation assay. Cells were seeded onto 96-, 24-, or 12-well plates and incubated for 48 to 72 h to allow for differentiation. Cells were washed with serum-free RPMI 1640 medium before each experiment to remove undifferentiated cells. […] Cells were seeded into tissue culture plates at 10% confluence and grown to 80% confluence within 72 h. For live cell microscopy, 1×10^5 cells/ml were seeded into 35 mm glass-bottom (MatTek) dishes 24 h prior to imaging. For luciferase assays, 1.2×10^5 cells/well were seeded into 24-well tissue culture-treated plates.
Following treatment, the relative cell viability was measured by Alamar Blue assay. For Alamar Blue assays, supernatants were replaced with culture medium containing 1× Alamar Blue reagent and incubated overnight. Cell viability was assessed by measuring relative fluorescent units (RFU) on the SpectraMax M2e microplate reader (Molecular Devices Inc., Sunnyvale, Calif., USA) at Ex 560 nm and Em 590 nm. The results were expressed as a percentage relative to LPS alone control cells. The effects of the vehicle control, DMSO, on cell viability were also assessed.
as §1

[2] = system: rat skeletal muscle cell line, L6; assay: cells; type: cell-based
[3] = system: Trypanosoma cruzi Tulahuen cells expressing beta-galactosidase; assay: T. cruzi intracellular assay (beta-galactosidase, L6 host cells); settings: Trypanosoma cruzi, TULAHUEN, read-out: IC50 TC-I, Table 3A; weighted means of two or more independent trials
[4] = system: Trypanosoma cruzi Tulahuen trypomastigotes; assay: T. cruzi extracellular assay (CellTiter Glo); type: cell-based; settings: for Selectivity L6/Tc: T. cruzi IC50 from extracellular assay (^b); for Selectivity L6/Tc (T. cruzi value from extracellular assay): L6 IC50 / T. cruzi IC50 (extracellular assay); for IC50: Trypanosoma cruzi, TULAHUEN
[5] = system: Trypanosoma brucei brucei 427 cells; assay: T. brucei culture and assay (PrestoBlue); type: cell-based; settings: for IC50: mean of 2(+) independent trials, read-out: IC50 T. brucei
[6] = system: Leishmania amazonensis promastigotes expressing beta-lactamase; assay: microbe, parasite or virus in culture; type: cell-based; settings: for IC50: Leishmania amazonensis
[7] = Homo sapiens, LPS-stimulated THP-1 cells, mean ± SD, read-out: Average % TNF-α Inhibition
[8] = Rattus norvegicus, Table 1, read-out: IC50 Toxicity (L6)
[9] = Table 2, L6 mammalian cells, read-out: IC50 Toxicity (L6)
[10] = Table 1, ^b extracellular T. cruzi assay, read-out: IC50 T. cruzi
[11] = Table 2, extracellular assay, read-out: IC50 T. cruzi (footnote b: Extracellular T. cruzi assay)
[12] = Table 2, L6 IC50 / L. amazonensis IC50
[13] = Table 2, L6 IC50 / T. brucei IC50

SMILES	IC50 [2, 8]	IC50 [4, 10]	IC50 [4, 11]	IC50 ([5]; Trypanosoma brucei, Table 1)	IC50 ([6]; read-out: IC50 L. amaz.)	Selectivity L6/La ([6]; Table 1)	Selectivity L6/La [6, 12]	Selectivity L6/Tb ([5]; Table 1)	melting point	further results
O=C1/C(=C/c2ccc(CO)o2)Oc2ccccc21 [Aurone 1]	–	–	–	–	–	–	–	–	–	inhibition at 40 µM (TNFα; [7]): 51.8 ± 13.5%; inhibition at 80 µM (TNFα; Homo sapiens, LPS-stimulated THP-1 cells, 80 μM, mean ± SD, read-out: Average % TNF-α Inhibition): 93.8 ± 0.7%
O=C1/C(=C/c2ccccc2O)Oc2ccccc21 [Aurone 4, (Z)-2-(2-hydroxybenzylidene)benzofuran-3(2H)-one]	–	–	–	–	–	–	–	–	–	inhibition at 40 µM (TNFα; [7]): 15.4 ± 5.3%
O=C1/C(=C/c2cccc(O)c2)Oc2ccccc21 [Aurone 5, (Z)-2-(3-hydroxybenzylidene)benzofuran-3(2H)-one]	–	–	–	–	–	–	–	–	–	Average % Viability (4 h with LPS) ([1]; 20 μM): 94.6 ± 1.2%; Average % Viability (4 h with LPS) ([1]; 25 μM): 92.9 ± 1.4%; Average % Viability (4 h with LPS) ([1]; 40 μM): 90.9 ± 0.6%; Average % TNF-α Inhibition (TNFα; LPS-stimulated THP-1 cells, 20, 25 and 40 μM (one cell for all concentrations)): No Inhibitions
O=C1/C(=C/c2ccc(O)cc2)Oc2ccccc21 [Aurone 6, (Z)-2-(4-hydroxybenzylidene)benzofuran-3(2H)-one]	–	–	–	–	–	–	–	–	–	Average % Viability (4 h with LPS) ([1]; 20 μM): 99.8 ± 1.5%; Average % Viability (4 h with LPS) ([1]; 40 μM): 98.5 ± 0.1%; Average % TNF-α Inhibition (TNFα; LPS-stimulated THP-1 cells, 20 and 40 μM (one cell for all concentrations)): No Inhibitions
COc1cc(/C=C2\Oc3ccccc3C2=O)ccc1O [Aurone 7, (Z)-2-(4-hydroxy-3-methoxybenzylidene)benzofuran-3(2H)-one]	–	–	–	–	–	–	–	–	–	inhibition at 40 µM (TNFα; [7]): 10.4 ± 4.7%
COc1ccc(/C=C2\Oc3ccccc3C2=O)cc1O [Aurone 9, (Z)-2-(3-hydroxy-4-methoxybenzylidene)benzofuran-3(2H)-one]	–	–	–	–	–	–	–	–	–	inhibition at 40 µM (TNFα; [7]): 14.9 ± 7.2%
O=C1/C(=C/c2cc(Br)cc(Br)c2O)Oc2ccccc21 [Aurone 3012, (Z)-2-(3,5-dibromo-2-hydroxybenzylidene)benzofuran-3(2H)-one]	> 100 µM	40.1 µM	40.1 µM	> 50 µM	1.21 µM	>82.64	>82.64	–	–	IC50 ([2]; Rattus norvegicus, Table 3A, weighted means of two or more independent trials, read-out: IC50 L6): > 100 µM; IC50 [2, 9]: > 100 µM; IC50 [3]: > 50 µM; Selectivity L6/Tc ([4]; Table 1): >2.49; Selectivity L6/Tc (T. cruzi value from extracellular assay) ([4]; Table 2): >2.49; IC50 ([5]; Table 2): > 50 µM
Cc1ccc2c(c1)C(=O)/C(=C/c1ccc(C#N)cc1)O2 [Aurone 4001, (Z)-4-((5-methyl-3-oxobenzofuran-2(3H)-ylidene)methyl)benzonitrile]	76.2 µM	31.7 µM	31.7 µM	2.66 µM	38.4 µM	1.98	1.98	28.66	148 to 152 °C	Selectivity L6/Tc ([4]; Table 1): 2.40; Selectivity L6/Tc (T. cruzi value from extracellular assay) ([4]; Table 2): 2.40; Selectivity L6/Tb [5, 13]: 28.66
Cc1ccc2c(c1)C(=O)/C(=C/c1ccc(Br)cc1)O2 [Aurone 4002, (Z)-2-(4-bromobenzylidene)-5-methylbenzofuran-3(2H)-one]	> 100 µM	> 50 µM	–	42.8 µM	19.7 µM	>5.07	–	>2.34	171 to 175 °C	–
COc1ccc(/C=C2\Oc3ccc(C)cc3C2=O)c(OC)c1OC [Aurone 4004, (Z)-5-methyl-2-(2,3,4-trimethoxybenzylidene)benzofuran-3(2H)-one]	43.9 µM	> 50 µM	> 50 µM	19.7 µM	4.04 µM	10.86	10.86	2.23	74 to 78 °C	Selectivity L6/Tb [5, 13]: 2.23
Cc1ccc2c(c1)C(=O)/C(=C/c1ccc(O)cc1)O2 [Aurone 4005, (Z)-2-(4-hydroxybenzylidene)-5-methylbenzofuran-3(2H)-one]	> 100 µM	> 50 µM	> 50 µM	> 50 µM	3.58 µM	>27.93	>27.93	–	228 to 231 °C	IC50 [2, 9]: > 100 µM; IC50 ([5]; Table 2): > 50 µM
Cc1ccc2c(c1)C(=O)/C(=C/c1ccccc1C(F)(F)F)O2 [Aurone 4006, (Z)-5-methyl-2-(2-(trifluoromethyl)benzylidene)benzofuran-3(2H)-one]	72.9 µM	15.8 µM	15.8 µM	30.2 µM	9.7 µM	7.52	7.52	2.41	121 to 124 °C	Selectivity L6/Tc ([4]; Table 1): 4.62; Selectivity L6/Tc (T. cruzi value from extracellular assay) ([4]; Table 2): 4.62; Selectivity L6/Tb [5, 13]: 2.41
O=C1/C(=C/c2ccc(C(F)(F)F)cc2)Oc2ccc(Br)cc21 [Aurone 6001, (Z)-5-bromo-2-(4-(trifluoromethyl)benzylidene)benzofuran-3(2H)-one]	> 100 µM	> 50 µM	> 50 µM	> 50 µM	7.29 µM	>13.72	>13.72	–	120 to 125 °C	IC50 [2, 9]: > 100 µM; IC50 ([5]; Table 2): > 50 µM
O=C1/C(=C/c2ccc(Br)cc2)Oc2ccc(Br)cc21 [Aurone 6002, (Z)-5-bromo-2-(4-bromobenzylidene)benzofuran-3(2H)-one]	> 100 µM	> 50 µM	–	42 µM	11 µM	>9.07	–	>2.38	126 to 130 °C	–
COc1cc(OC)c2c(c1)O/C(=C\c1ccc(C#N)cc1)C2=O [Aurone 7002, (Z)-4-((4,6-dimethoxy-3-oxobenzofuran-2(3H)-ylidene)methyl)benonitrile]	82.5 µM	> 50 µM	> 50 µM	> 50 µM	2.08 µM	39.68	39.68	–	220 to 223 °C	IC50 ([5]; Table 2): > 50 µM; IC50 ([6]; read-out: IC50 L. amaz. (footnote c: value obtained from one trial)): 2.08 µM
Cc1cccc(/C=C2\Oc3ccccc3C2=O)c1 [Aurone 9064, (Z)-2-(3-methylbenzylidene)benzofuran-3(2H)-one]	79.9 µM	18.4 µM	18.4 µM	32.6 µM	4.4 µM	–	–	–	74 to 75 °C	–
